Measured values as given in PMC10042540, “Targeting oncogenic KRasG13C with nucleotide-based covalent inhibitors” (eLife, 2023).

Tests used:
SOS = test: Guanine nucleotide-exchange factor assay (mantdGDP fluorescence); format: biochemical
Protocol: SOS-catalysed nucleotide exchange was monitored at 25 °C in a FluoroMax-3 spectrofluorometer (excitation at 360 nm, emission at 440 nm) in 20 mM HEPES (pH 7.5), 100 mM NaCl, 2 mM MgCl2, and 1 mM TCEP. 5 µM KRas1-169 was mixed with 10 µM mantdGDP and subsequently with different concentrations of SOS (0.25 µM and 0.5 µM) (Figure 3A; Figure 3—figure supplement 1).

[1] = tested on: GST-tagged cRafRBD (amino acids 51–131); test: Effector binding (pull-down experiments); conditions: in the presence of GppNHp alone or in combination with SOS
Protocol: Pull-down experiments were performed in 20 mM HEPES pH 7.5, 50 mM NaCl and 2 mM MgCl2. […] Afterwards, 50 µL glutathione magnetic beads were added to each sample for 30 min. After washing the beads with 500 µL buffer, the beads were settled with a magnet and the supernatant was carefully removed. The beads were resuspended in 50 µL of 4xSDS-loading buffer and visualized via SDS-PAGE (Figure 3—figure supplement 3).

pAktS473 = test: Electroporation into HeLa cells, western blot quantification; format: cell-based, human; conditions: for pAkt mean fold change: mean of cell lysates
Method in brief: (§1)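 HeLa cells electroporated (2×35 ms, 1000 V) with 0–300 µg recombinant full-length KRas WT or G13C constructs, washed, then recovered for 24 h at 37 °C. Lysates (10 µg protein) analysed by SDS-PAGE and fluorescent western blotting, with protein levels quantified from blot signal.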

tAkt1 = test: as above; format: cell-based, human; conditions: for tAkt mean fold change: mean of cell lysates
Method in brief: as §1

[2] = tested on: farnesyltransferase (FTase); test: In vitro farnesylation; format: biochemical; conditions: full-length protein, FPP, ESI-MS
Protocol: 50 µM of full-length KRas protein was mixed with 250 µM farnesyl pyrophosphate (FPP) and 10 µM farnesyltransferase (FTase). After incubation at room temperature for 1 hr the mixture was centrifugated at 14,000 rpm for 10 min at 4 °C and analyzed via ESI-MS (Figure 3—figure supplement 4).

[3] = tested on: Ras pathway (pcRaf, pAkt, pErk, pS6); test: Electroporation into HeLa cells, western blot of downstream signalling; format: cell-based, human; conditions: electroporation of 50-300 µg protein
Method in brief: as §1

KRasG13C-edaGDP: KRasG13C covalently locked with edaGDP at Cys13
SOS-catalysed nucleotide exchange (SOS; 5 µM KRas1-169, 10 µM mantdGDP, 0.25 or 0.5 µM SOS): unable to do so
intrinsic nucleotide exchange rate (SOS; absence of SOS): abrogated
binding to RafRBD (pull-down) [1]: neither in the presence of GppNHp nor of additional SOS able to bind to the RafRBD
pAkt fold change (pAktS473; 50 µg, Cell lysate 1): 0.89
pAkt fold change (pAktS473; 50 µg, Cell lysate 2): 1.23
pAkt mean fold change (pAktS473; 50 µg): 0.54
pAkt fold change (pAktS473; 100 µg, Cell lysate 1): 0.28
pAkt fold change (pAktS473; 100 µg, Cell lysate 2): 0.69
pAkt fold change (pAktS473; 100 µg, Cell lysate 3): 1.01
pAkt mean fold change (pAktS473; 100 µg): 0.66
pAkt fold change (pAktS473; 200 µg, Cell lysate 1): 0.45
pAkt fold change (pAktS473; 200 µg, Cell lysate 2): 0.95
pAkt fold change (pAktS473; 200 µg, Cell lysate 3): 0.56
pAkt mean fold change (pAktS473; 200 µg): 0.65
pAkt fold change (pAktS473; 300 µg, Cell lysate 1): 0.63
pAkt fold change (pAktS473; 300 µg, Cell lysate 2): 0.97
pAkt fold change (pAktS473; 300 µg, Cell lysate 3): 1.17
pAkt mean fold change (pAktS473; 300 µg): 0.92
tAkt fold change (tAkt1; 50 µg, Cell lysate 1): 0.65
tAkt fold change (tAkt1; 50 µg, Cell lysate 2): 1.23
tAkt fold change (tAkt1; 50 µg, Cell lysate 3): 1.06
tAkt mean fold change (tAkt1; 50 µg): 0.98
tAkt fold change (tAkt1; 100 µg, Cell lysate 1): 0.92
tAkt fold change (tAkt1; 100 µg, Cell lysate 2): 1.65
tAkt fold change (tAkt1; 100 µg, Cell lysate 3): 0.97
tAkt mean fold change (tAkt1; 100 µg): 1.18
tAkt fold change (tAkt1; 200 µg, Cell lysate 1): 1.06
tAkt fold change (tAkt1; 200 µg, Cell lysate 2): 1.22
tAkt fold change (tAkt1; 200 µg, Cell lysate 3): 0.78
tAkt mean fold change (tAkt1; 200 µg): 1.02
tAkt fold change (tAkt1; 300 µg, Cell lysate 1): 0.92
tAkt fold change (tAkt1; 300 µg, Cell lysate 2): 0.97
tAkt fold change (tAkt1; 300 µg, Cell lysate 3): 0.68
tAkt mean fold change (tAkt1; 300 µg): 0.86
in vitro farnesylation [2]: fully farnesylated
downstream signalling (pcRaf, pAkt, pErk, pS6) [3]: unable to induce these effects
